Patent US20100113523A1 (priority 2008, published 2010)
pIC50: −log10 of the molar value.

Tests used:
[1] = biological target: T1, tryptase enzyme (Homo sapiens, UniProt P20231); test: Tryptase inhibition (cleavage of tosyl-gly-pro-lys-pNA, absorbance at 405 nm); assay type: biochemical; details: relative to controls; 2 h at 37° C.
T1 construct: purchased Millipore Inc., Westbury, Mass
Protocol: Tryptase activity was determined by monitoring the production of chromophore p-nitroaniline (pNA) generated by the cleavage of tosyl-gly-pro-lys-pNA by the tryptase enzyme according to the manufacturer's protocol (Millipore Inc., Westbury, Mass.). In a 96-well format, 10 μL of tryptase was added to 10 μL of sample, followed by 20 μL of tosyl-gly-pro-lys-pNA and 160 μL of 1× reaction buffer and incubated for 2 h at 37° C. After the incubation, absorbance at 405 nm was measured in each well using a Tecan M200 microplate reader.

[2] = Pharmacokinetic analysis in humans (serum and urine, DART TOF-MS); assay type: in vivo; details: human, ingested in a mixture
Protocol: Five healthy consenting female adults ranging in age from 23 to 57 were took diets free of flavonoids and any NSAIDs. A certified individual collected blood samples at several time intervals between 0 and 480 min after compounds of the present invention were ingested in a mixture. Immediately after the time zero blood samples were collected, a single 100 mg dose of the composition was administered as a lozenge. Blood samples were handled with approved protocols and precautions, centrifuged to remove cells and the serum fraction was collected and frozen. Blood was not treated with heparin to avoid any analytical interference. Urine samples were collected from the same five subjects on a time course (0 to 8 h).
The cells were removed from the blood samples by centrifugation and the serum was collected. Serum samples were prepared for DART TOF-MS analysis by extraction with an equal volume of neat ethanol (USP) to minimize background of proteins, peptides, and polysaccharides present in serum. The ethanol extract was centrifuged for 10 min at 4° C., the supernatant was removed, concentrated to 200 μL volume, and 50 μL of an internal standard was added. Urine samples were not treated and used directly for DART TOF-MS. DART TOF-MS analyses were conducted as described above.

T1 sequence (P20231 31-275): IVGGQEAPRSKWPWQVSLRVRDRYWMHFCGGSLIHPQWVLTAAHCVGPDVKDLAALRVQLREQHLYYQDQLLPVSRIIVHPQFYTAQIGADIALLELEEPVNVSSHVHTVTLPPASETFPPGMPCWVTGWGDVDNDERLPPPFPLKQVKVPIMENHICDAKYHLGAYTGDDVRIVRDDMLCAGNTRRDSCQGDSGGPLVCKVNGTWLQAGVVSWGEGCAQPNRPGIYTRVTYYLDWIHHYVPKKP

| SMILES | pIC50 [1] | time to appearance in the bloodstream (serum) after ingestion ([2]; single 100 mg lozenge) | time to appearance in urine after ingestion ([2]; single 100 mg lozenge) | time present in the serum post-ingestion ([2]; single 100 mg lozenge, sampling 0 to 480 min) | persistence in the urine post-ingestion ([2]; urine collected 0 to 8 h) |
| --- | --- | --- | --- | --- | --- |
| CCCCCC/C=C/CN(c1ccc(C)cc1)c1ccc(SSc2ccc(N(C/C=C/CCCCCC)c3ccc(C)cc3)nc2)cn1 [compound [7]] | 3.10 |  |  |  |  |
| CCCCCC/C=C/CN(c1ccc(C)cc1)c1ccc(S)cn1 [compound (V)] |  | ≤ 10 min | ≤ 1 h | up to 480 min | up to 8 h |
